Experimental data as given in patent US20190231748A1, “COMPOSITION FOR VAGINA AND ANTIMICROBIAL AGENT COMBINATION FOR USE IN PREPARING COMPOSITION FOR VAGINA” (Shenzhen Eulikan Biotechnology Co., Ltd., priority 2016, published 2019).

Columns and labels:
Format in all cases: cell-based
Lactococcus lactis = assay: Gram-stained smear of co-culture gel, Gram-positive cocci (G+c); conditions: for Smear G^+c: cultivated 32 hours
Description: (§1) 2.1 Experimental strains: one Lactococcus lactis strain and one Lactobacillus jensenii strain, both were clinical isolates.
(§2) The pH value was adjusted to 5.0.
(§3) 2.4 Experimental procedure: the test gel tubes containing different concentrations of antimicrobial agents, as shown in Tables 1 to 6 were inoculated with 100 microliters of Lactobacillus lactis suspension and 100 microliters of Lactobacillus jensenii suspension at the same time. The turbidities of both suspensions were 0.5 MCF. Then the tubes were cultivated at 37° C. and under 5 percent CO2 for 32 hours. Then the changes of the pH values of gels were tested. The gels were smeared, Gram stained, and microscopically examined for the morphology and quantity of bacteria.

Lactobacillus jensenii = assay: Gram-stained smear of co-culture gel, Gram-positive rods (G+b); conditions: for Smear G^+b: cultivated 32 hours
Description: as §1, §2, §3

[1] = test system: Lactococcus lactis and Lactobacillus jensenii; assay: pH of test gel after co-culture of Lactococcus lactis and Lactobacillus jensenii; conditions: cultivated 32 hours
Description: as §1, §2, §3

[2] = test system: three strains of Staphylococcus aureus isolated from the vaginal secretion of patients with vaginitis; assay: Growth in enrichment broth (turbidity after 24 hours), clinical strains; design: key to growth of Staphylococcus aureus, Bacterial strain 1 / growth of Staphylococcus aureus, Bacterial strain 2 / growth of Staphylococcus aureus, Bacterial strain 3: +: means the growth of bacteria; −: means no growth of bacteria; conditions: enrichment broth, 37° C. for 24 hours, turbidity
Description: (§4) a. Experimental strains, three strains of Escherichia coli and three strains of Staphylococcus aureus, which were all isolated from the vaginal secretion of patients with vaginitis.
(§5) b. Enrichment broth, which contained 1 percent of yeast extract powder, 9 percent of sucrose, 0.025 percent of manganese sulfate (MnSO4.4H2O), 0.058 percent of magnesium sulfate (MgSO4.7H2O), and 0.9 percent of lactic acid, the pH value of the broth was adjusted to 4.8, and the enrichment broth was sterilized for later use;
(§6) (2). Experimental groups: the requirements for aseptic operation technique were strictly followed to prepare the sterile test tubes:
(§7) a. sodium benzoate group: each test tube contained 5 milliliters of enrichment broth, and was added in 0.05 percent (weight/volume) sodium benzoate;
(§8) b. 2-phenylethanol group: each test tube contained 5 milliliters of enrichment broth, and was added in 0.05 percent (weight/volume) of 2-phenylethanol;
(§9) c. sodium propionate group: each test tube contained 5 milliliters of enrichment broth, and was added in 0.25 percent (weight/volume) of sodium propionate;
(§10) d. “a group of the combinations of sodium benzoate and sodium propionate”: each test tube contained 5 milliliters of enrichment broth, and was added in 0.05 percent (weight/volume) of sodium benzoate and 0.25 percent (weight/volume) of sodium propionate;
(§11) e. “a group of the combinations of sodium benzoate and 2-phenylethanol”: each test tube contained 5 milliliters of enrichment broth, and was added in 0.05 percent (weight/volume) of sodium benzoate and 0.05 percent (weight/volume) of 2-phenylethanol;
(§12) f. “a group of the combinations of sodium propionate and 2-phenylethanol”: each test tube contained 5 milliliters of enrichment broth, and was added in 0.25 percent (weight/volume) of sodium propionate and 0.05 percent (weight/volume) of 2-phenylethanol;
(§13) g. “a group of the combinations of sodium benzoate, sodium propionate and 2-phenylethanol”: each test tube contained 5 milliliters of enrichment broth, and was added in 0.05 percent (weight/volume) of sodium benzoate, 0.25 percent (weight/volume) of sodium propionate, and 0.05 percent (weight/volume) of 2-phenylethanol;
(§14) h. positive control: one tube that contained 5 milliliters of enrichment broth without adding in any of the 2-phenylethanol, sodium benzoate, and sodium propionate, but inoculated the suspension of Escherichia coli or Staphylococcus aureus.
(§15) i. negative control: one tube that contained 5 milliliters of enrichment broth without adding in any of the 2-phenylethanol, sodium benzoate, and sodium propionate, and not inoculated the suspension of Escherichia coli or Staphylococcus aureus.
(§16) The requirements for aseptic operation technique were strictly followed to prepare the bacterial suspensions. The colonies of Escherichia coli and Staphylococcus aureus were diluted with physiological saline respectively to prepare bacterial suspension. The turbidities of the Escherichia coli suspension and the Staphylococcus aureus suspension were adjusted to 0.5 MCF (about 10^8 CFU/ml) by a turbidimeter. 1 milliliter of the 0.5 MCF bacterial suspensions were added into 9 milliliters of the enrichment broth respectively, so each bacterial solution was diluted for ten times to contain 10^7 CFU/ml of bacterial organisms.
(§17) The requirements for aseptic operation technique were strictly followed to take 100 microliters of the prepared bacterial suspensions respectively, and to add the bacterial suspensions into the aforesaid test tubes from a to h as well as positive control tube. No bacterial suspension was added into the negative control tube i.
(§18) The above tubes were cultured in a biochemical incubator at 37° C. for 24 hours, then turbidity changes of the test tube solutions were observed and recorded.
(§19) Remark: “+” means the growth of bacteria; “−” means no growth of bacteria.

[3] = test system: three strains of Escherichia coli isolated from the vaginal secretion of patients with vaginitis; assay: as above; design: key to growth of Escherichia coli, Bacterial strain 1 / growth of Escherichia coli, Bacterial strain 2 / growth of Escherichia coli, Bacterial strain 3: +: means the growth of bacteria; −: means no growth of bacteria; conditions: enrichment broth, 37° C. for 24 hours, turbidity
Description: as §4, §5, §6, §7, §8, §9, §10, §11, §12, §13, §14, §15, §16, §17, §18, §19

[4] = test system: nine strains of Candida albicans; assay: Growth of Candida in enrichment broth after 24 hours, clinical strains; design: key to growth of Candida albicans, strain 1 / growth of Candida albicans, strain 2 / growth of Candida albicans, strain 3 / growth of Candida albicans, strain 4 / growth of Candida albicans, strain 5 / growth of Candida albicans, strain 6 / growth of Candida albicans, strain 7 / growth of Candida albicans, strain 8 / growth of Candida albicans, strain 9: +: means the growth of organisms; −: means no growth of organisms; conditions: enrichment broth, 37° C. for 24 hours
Description: as §5, with “broth:” for “broth,”, “4.5,” for “4.8,”
(2) Experimental groups: the requirements of aseptic operation technique were strictly followed so to prepare the sterile test tubes;
a. sodium benzoate group: each test tube contained 5 milliliters enrichment broth, and was added in 0.025 percent (weight/volume) of sodium benzoate;
b. 2-phenylethanol group: each test tube contained 5 milliliters enrichment broth, and was added in 0.050 percent (weight/volume) of 2-phenylethanol;
c. sodium propionate group: each test tube contained 5 milliliters enrichment broth, and was added in 0.125 percent (weight/volume) of sodium propionate;
d. “a group of the combinations of sodium benzoate and sodium propionate”: each test tube contained 5 milliliters enrichment broth, and was added in 0.025 percent (weight/volume) of sodium benzoate and 0.125 percent (weight/volume) of sodium propionate;
e. “a group of the combinations of sodium benzoate and 2-phenylethanol”: each test tube contained 5 milliliters enrichment broth, and was added in 0.025 percent (weight/volume) of sodium benzoate and 0.050 percent (weight/volume) of 2-phenylethanol;
f. “a group of the combinations of sodium propionate and 2-phenylethanol”: each test tube contained 5 milliliters enrichment broth, and was added in 0.125 percent (weight/volume) of sodium propionate and 0.050 percent (weight/volume) of 2-phenylethanol;
g. “a group of the combinations of sodium benzoate, sodium propionate and 2-phenylethanol”: each test tube contained 5 milliliters enrichment broth, and was added in 0.025 percent (weight/volume) of sodium benzoate, 0.125 percent (weight/volume) of sodium propionate and 0.050 percent (weight/volume) of 2-phenylethanol;
h. positive control: the control tube of enrichment broth without adding in 2-phenylethanol, sodium benzoate, and sodium propionate; but inoculated the suspension of Candida albicans;
i. negative control: the control tube of enrichment broth without adding in 2-phenylethanol, sodium benzoate, and sodium propionate; and without inoculating Candida albicans;
The requirements for aseptic operation technique were strictly followed to prepare the suspension of organism. The colonies of each strain of Candida albicans organism were diluted with physiological saline respectively. The turbidities of the suspensions of Candida albicans organism were adjusted to 0.5 MCF (about 10^8 CFU/ml) by a turbidimeter. 1 milliliter of the 0.5 MCF organism suspension was added into 9 milliliters of enrichment broth. Each suspension was diluted for ten times to contain 10^7 CFU/ml of organisms.
the requirements for aseptic technique were strictly followed to take 100 microliters of the prepared organism suspension respectively and to add the suspension into the test tubes from a to h as well as the positive control tube. No organism suspension was added into the negative control tube i.
The above tubes were cultured in a biochemical incubator at 37° C. for 24 hours. Then the growth of Candida in each tube was observed and recorded.
Remark: “+” means the growth of organisms; “−” means no growth of organisms.

CC(=O)c1c([O-])cc(C)oc1=O.[Na+] [sodium dehydroacetate]
G^+b+: Smear G^+b (Lactobacillus jensenii; 0.005 % in test gel) | Smear G^+b (Lactobacillus jensenii; 0.010 % in test gel) | Smear G^+b (Lactobacillus jensenii; 0.015 % in test gel) | Smear G^+b (Lactobacillus jensenii; 0.020 % in test gel) | Smear G^+b (Lactobacillus jensenii; 0.025 % in test gel) | Smear G^+b (Lactobacillus jensenii; 0.030 % in test gel) | Smear G^+b (Lactobacillus jensenii; 0.035 % in test gel)
G^+c++: Smear G^+c (Lactococcus lactis; 0.005 % in test gel) | Smear G^+c (Lactococcus lactis; 0.010 % in test gel) | Smear G^+c (Lactococcus lactis; 0.015 % in test gel) | Smear G^+c (Lactococcus lactis; 0.020 % in test gel) | Smear G^+c (Lactococcus lactis; 0.025 % in test gel) | Smear G^+c (Lactococcus lactis; 0.030 % in test gel) | Smear G^+c (Lactococcus lactis; 0.035 % in test gel)
little inhibition effect: inhibition effect on the growth of Lactococcus lactis (Lactococcus lactis; 0.005 to 0.035 percent)
3.8: pH value ([1]; 0.005 % in test gel) | pH value ([1]; 0.010 % in test gel) | pH value ([1]; 0.015 % in test gel) | pH value ([1]; 0.020 % in test gel) | pH value ([1]; 0.025 % in test gel) | pH value ([1]; 0.030 % in test gel) | pH value ([1]; 0.035 % in test gel)

CCCCCCCC(=O)[O-].[Na+] [sodium octanoate]
<3.8: pH value ([1]; 0.010 % in test gel) | pH value ([1]; 0.015 % in test gel)
G^+c++++: Smear G^+c (Lactococcus lactis; 0.010 % in test gel) | Smear G^+c (Lactococcus lactis; 0.015 % in test gel) | Smear G^+c (Lactococcus lactis; 0.020 % in test gel)
3.8: pH value ([1]; 0.020 % in test gel)
G^+b+: Smear G^+b (Lactobacillus jensenii; 0.010 % in test gel) | Smear G^+b (Lactobacillus jensenii; 0.015 % in test gel) | Smear G^+b (Lactobacillus jensenii; 0.020 % in test gel)
4.8: pH value ([1]; 0.05 % in test gel)
little inhibition effect: inhibition effect on the growth of Lactococcus lactis (Lactococcus lactis; 0.010 to 0.020 percent)
stronger inhibiting effect: inhibiting effect on Lactococcus lactis (Lactococcus lactis; 0.05 percent) | inhibiting effect on lactobacillus (Lactobacillus jensenii; 0.05 percent)

OCCc1ccccc1 [b. 0.05% 2-phenylethanol]
+: growth of Staphylococcus aureus, Bacterial strain 1 ([2]; strain 1) | growth of Staphylococcus aureus, Bacterial strain 2 ([2]; strain 2) | growth of Staphylococcus aureus, Bacterial strain 3 ([2]; strain 3) | growth of Escherichia coli, Bacterial strain 1 ([3]; strain 1) | growth of Escherichia coli, Bacterial strain 2 ([3]; strain 2) | growth of Escherichia coli, Bacterial strain 3 ([3]; strain 3)

CCC(=O)[O-].[Na+] [f. 0.125% sodium propionate]
+: growth of Candida albicans, strain 1 [4] | growth of Candida albicans, strain 2 [4] | growth of Candida albicans, strain 4 [4] | growth of Candida albicans, strain 5 [4] | growth of Candida albicans, strain 6 [4] | growth of Candida albicans, strain 8 [4]
−: growth of Candida albicans, strain 3 [4] | growth of Candida albicans, strain 7 [4] | growth of Candida albicans, strain 9 [4]

CC(=O)[O-].[Na+] [sodium acetate]
little inhibition effect: inhibition effect on the growth of Lactococcus lactis (Lactococcus lactis; 0.1 to 0.8 percent)
G^+b+: Smear G^+b (Lactobacillus jensenii; 0.1 % in test gel) | Smear G^+b (Lactobacillus jensenii; 0.2 % in test gel) | Smear G^+b (Lactobacillus jensenii; 0.3 % in test gel) | Smear G^+b (Lactobacillus jensenii; 0.4 % in test gel) | Smear G^+b (Lactobacillus jensenii; 0.5 % in test gel) | Smear G^+b (Lactobacillus jensenii; 0.6 % in test gel) | Smear G^+b (Lactobacillus jensenii; 0.7 % in test gel) | Smear G^+b (Lactobacillus jensenii; 0.8 % in test gel)
<3.8: pH value ([1]; 0.1 % in test gel) | pH value ([1]; 0.2 % in test gel) | pH value ([1]; 0.3 % in test gel) | pH value ([1]; 0.4 % in test gel) | pH value ([1]; 0.5 % in test gel)
3.8-4.1: pH value ([1]; 0.8 % in test gel)
3.8: pH value ([1]; 0.6 % in test gel) | pH value ([1]; 0.7 % in test gel)
G^+c++: Smear G^+c (Lactococcus lactis; 0.1 % in test gel) | Smear G^+c (Lactococcus lactis; 0.2 % in test gel) | Smear G^+c (Lactococcus lactis; 0.3 % in test gel) | Smear G^+c (Lactococcus lactis; 0.4 % in test gel) | Smear G^+c (Lactococcus lactis; 0.5 % in test gel) | Smear G^+c (Lactococcus lactis; 0.6 % in test gel) | Smear G^+c (Lactococcus lactis; 0.7 % in test gel) | Smear G^+c (Lactococcus lactis; 0.8 % in test gel)

OCCc1ccccc1 [e. 0.050% 2-phenylethanol]
−: growth of Candida albicans, strain 1 [4] | growth of Candida albicans, strain 7 [4]
+: growth of Candida albicans, strain 2 [4] | growth of Candida albicans, strain 3 [4] | growth of Candida albicans, strain 4 [4] | growth of Candida albicans, strain 5 [4] | growth of Candida albicans, strain 6 [4] | growth of Candida albicans, strain 8 [4] | growth of Candida albicans, strain 9 [4]

O=C([O-])c1ccccc1.[Na+] [d. 0.025% sodium benzoate]
+: growth of Candida albicans, strain 1 [4] | growth of Candida albicans, strain 2 [4] | growth of Candida albicans, strain 3 [4] | growth of Candida albicans, strain 4 [4] | growth of Candida albicans, strain 5 [4] | growth of Candida albicans, strain 6 [4] | growth of Candida albicans, strain 7 [4] | growth of Candida albicans, strain 8 [4] | growth of Candida albicans, strain 9 [4]
